Values after ≈ are worked out from the molar mass of the structure shown.
Legend:
[1] = Anticoagulant activity in plasma assessed as elongation in mean prothrombin time after 5 min by Quick's method; format: functional, cell-free
[2] = Octanol-water partition coefficient, log P of the compound; format: physicochemical

Row | SMILES | IC50 [1] [µg/mL] | logP [2]
1 | C/C(CC(=O)Nc1nnc(/C=C/c2ccccc2)s1)=N\c1ccc([N+](=O)[O-])cn1 | 3000 (≈ 7.34 mM) | 4.13
2 | C/C(CC(=O)Nc1nnc(-c2ccc(N)cc2)s1)=N\c1ccccn1 | 3500 (≈ 9.93 mM) | 3.3
3 | C/C(CC(=O)Nc1nnc(-c2ccc(O)cc2)s1)=N\c1ccc([N+](=O)[O-])cn1 | 2800 (≈ 7.03 mM) | 3.34
4 | CC(=O)Oc1ccccc1-c1nnc(NC(=O)C/C(C)=N/c2ccc([N+](=O)[O-])cn2)s1 | 2100 (≈ 4.77 mM) | 3.55
5 | CC(=O)Oc1ccccc1-c1nnc(NC(=O)C/C(C)=N/c2ccccn2)s1 | 2600 (≈ 6.57 mM) | 3.65
6 | C/C(CC(=O)Nc1nnc(-c2ccc([N+](=O)[O-])cc2)s1)=N\c1ccccn1 | 1200 (≈ 3.14 mM) | 3.63
7 | C/C(CC(=O)Nc1nnc(-c2ccc(O)cc2)s1)=N\c1ccccn1 | 3100 (≈ 8.77 mM) | 3.43
8 | C/C(CC(=O)Nc1nnc(/C=C/c2ccccc2)s1)=N\c1ccccn1 | 2400 (≈ 6.6 mM) | 4.22
9 | C/C(CC(=O)Nc1nnc(-c2ccc(N)cc2)s1)=N\c1ccc([N+](=O)[O-])cn1 | 2700 (≈ 6.79 mM) | 3.21
10 | C/C(CC(=O)Nc1nnc(-c2ccc([N+](=O)[O-])cc2)s1)=N\c1ccc([N+](=O)[O-])cn1 | 1200 (≈ 2.81 mM) | 3.54
